We go through 3 compounds from US10988524B2, “Modified relaxin B chain peptides and their therapeutic use” (priority 2018, dated 2021).

A short description of series [1]: Stability in human plasma. The conditions noted are these: 37° C.; for Human Plasma stability % remaining, T = 0: 5 μM; for remaining at 1 h, 5 μM / remaining at 4 h, 5 μM: human plasma (sodium or lithium heparin). The class given is in vitro ADME. How it is done: (§1) Prior to the testing of stability in plasma of a peptide batch, its purity (HPLC-UV) was determined.
(§2) Rat and Human plasma: anti-coagulant sodium or lithium heparin.
(§3) 100 μM solution of study compound in 50 mM Phosphate buffer pH 7.4.
(§4) 950 μL plasma is pre-incubated for 5 min at 37° C. 50 μL of compound stock solution is added. Final compound concentration=5 μM. Vortex and transfer 1504, plasma into an Eppendorf for each time point. The time points 0-1 and −4 h are carried out in duplicate for each species.
(§5) After incubation extract 1504, plasma with 6004, Acetonitrile containing with 1% TFA. Vortex and centrifuge 10 min at 14600 rpm. Dry 2004, supernatant under N2. Reconstitute sample in 200 μL of H2O/CH3CN 98/2+0.1% FA+50 ng/ml Labetalol and analyze using the analytical system used in solubility and stability studies.
(§6) For determination of the amount of the remaining peptide, the peak areas of the target compound at t0 and each time point […] were compared, resulting in “% remaining peptide”, following the equation
(§7) % remaining peptide=[(peak area peptide time)×100]/peak area peptide t0. The stability is expressed as “% remaining peptide”.

A further series can be described thus: Stability in rat plasma. In kind it is in vitro ADME. The conditions noted are these: 37° C.; for Rat plasma stability % remaining, T = 0: 5 μM; for remaining at 1 h, 5 μM / remaining at 4 h, 5 μM: rat plasma (sodium or lithium heparin). How it is done:
as §1, §2, §3, §4, §5, §6, §7

Series [2] is described as follows: Solubility testing of peptides in buffer. In kind it is physicochemical.
The next series concerns the target T1, RXFP1 (Homo sapiens, UniProt Q9HBX9).
T1 sequence (Q9HBX9 1-757): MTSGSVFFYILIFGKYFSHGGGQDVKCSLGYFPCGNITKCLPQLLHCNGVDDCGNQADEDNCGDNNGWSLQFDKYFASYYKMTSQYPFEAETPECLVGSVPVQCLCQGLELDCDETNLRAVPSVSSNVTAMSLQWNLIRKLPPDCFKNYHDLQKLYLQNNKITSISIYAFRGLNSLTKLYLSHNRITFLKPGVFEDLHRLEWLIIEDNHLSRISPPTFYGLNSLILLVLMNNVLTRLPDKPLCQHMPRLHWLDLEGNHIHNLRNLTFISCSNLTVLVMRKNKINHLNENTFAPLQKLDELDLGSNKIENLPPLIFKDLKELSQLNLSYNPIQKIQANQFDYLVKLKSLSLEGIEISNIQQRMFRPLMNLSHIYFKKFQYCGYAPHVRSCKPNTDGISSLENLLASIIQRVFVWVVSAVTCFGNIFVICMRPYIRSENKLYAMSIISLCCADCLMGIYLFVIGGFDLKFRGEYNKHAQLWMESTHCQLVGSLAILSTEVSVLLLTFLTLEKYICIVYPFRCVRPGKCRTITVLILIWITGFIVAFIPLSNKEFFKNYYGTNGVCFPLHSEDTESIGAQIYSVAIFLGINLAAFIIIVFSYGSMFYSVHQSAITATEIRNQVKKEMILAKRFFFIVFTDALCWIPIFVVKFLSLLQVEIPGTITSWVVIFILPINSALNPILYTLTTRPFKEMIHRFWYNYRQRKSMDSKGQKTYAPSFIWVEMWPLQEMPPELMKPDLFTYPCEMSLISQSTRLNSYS
The series is described as follows: OVCAR5 cAMP assay (RXFP1 agonist activity, HTRF). The conditions noted are these: for Emax: OVCAR-5, read-out: cAMP assay in OVCAR 5 cells Emax, maximal intracellular cAMP relative to H2-relaxin in the same test occasion.

Setting [3] is: acetate buffer, pH 4.5, read-out: Solubility Acetate buffer pH 4.5.
[4] abbreviates: phosphate buffer, pH 7.4, read-out: Solubility phosphate buffer pH 7.4.

In general, solubility refers to the concentration that dissolves in the medium under given conditions. The term Emax denotes the size of the effect at its maximum, as opposed to the concentration needed. A word on the EC50: it is the concentration that produces a half-maximal response.

≈ marks a conversion by molar mass, not a printed value. Where two headings read alike, the source gives them in different places. Non-standard residues stand in square brackets, D forms with d. Residues, ends and D or L forms follow the SMILES beside them. Nle = CCCC[C@H](N)C(=O)O; Aib = CC(C)(N)C(=O)O

For the compound `CCCC[C@H](NC(=O)CNC(=O)[C@H](CCC(=O)O)NC(=O)C(C)(C)NC(=O)C(C)(C)NC(=O)[C@@H](NC(=O)[C@H](CCCCNC(C)=O)NC(=O)[C@H](C)NC(=O)[C@H](CCCNC(=N)N)NC(=O)[C@@H](NC(=O)[C@H](CCCCN)NC(=O)[C@H](CCC(=O)O)NC(=O)[C@H](CCCNC(=N)N)NC(=O)CNC(=O)[C@H](CCC(=O)O)NC(=O)[C@H](CC(C)C)NC(C)=O)C(C)C)[C@@H](C)CC)C(=O)N[C@@H](CO)C(=O)N[C@H](C(=O)N[C@@H](Cc1c[nH]c2ccccc12)C(=O)N[C@@H](CO)C(=O)NC(C)(C)C(=O)N[C@@H](CCCNC(=N)N)C(=O)N[C@@H](CCCCN)C(=O)N[C@@H](CCCCNC(C)=O)C(N)=O)[C@@H](C)O` [compound 5] (Ac-LEGREKVRAK(Ac)I[Aib][Aib]EG[Nle]STWS[Aib]RKK(Ac)-NH2), in series [1], the “Human Plasma stability % remaining, T = 0” value came to 100%; the share remaining at 1 h, 5 μM stood at 93%; the amount remaining at 4 h, 5 μM amounted to 74%. Moreover, in “Stability in rat plasma”, the “Rat plasma stability % remaining, T = 0” value is recorded as 100%; the amount remaining at 1 h, 5 μM was determined as 86%; the amount remaining at 4 h, 5 μM was found to be 60%. The solubility in series [2] (setting [3]) is 4 mg/mL (≈ 1400 µM). Besides, in series [2] (setting [4]), the solubility was 4 mg/mL (≈ 1400 µM). Further, the Emax on RXFP1 came out at 98%. On RXFP1 (cAMP assay in OVCAR 5 cells EC50 (nM), OVCAR5 cells expressing endogenous RXFP1, cAMP by HTRF, 30 min at 37° C., 1 mM IBMX), the EC50 is at most 10 nM.

With `CC[C@H](C)[C@H](NC(=O)[C@H](CCC(N)=O)NC(=O)[C@H](C)NC(=O)[C@H](CCCNC(=N)N)NC(=O)[C@@H](NC(=O)[C@H](CCCCN)NC(=O)[C@H](CCC(=O)O)NC(=O)[C@H](CCCNC(=N)N)NC(=O)CNC(=O)[C@H](CCC(=O)O)NC(=O)[C@H](CC(C)C)NC(C)=O)C(C)C)C(=O)NC(C)(C)C(=O)NC(C)(C)C(=O)N[C@@H](CCC(=O)O)C(=O)NCC(=O)N[C@@H](CCSC)C(=O)N[C@@H](CO)C(=O)N[C@H](C(=O)N[C@@H](Cc1c[nH]c2ccccc12)C(=O)N[C@@H](CO)C(=O)NC(C)(C)C(=O)N[C@@H](CCCNC(=N)N)C(=O)N[C@@H](CCCCN)C(=O)N[C@@H](CCCCN)C(N)=O)[C@@H](C)O` [compound 4] (Ac-LEGREKVRAQI[Aib][Aib]EGMSTWS[Aib]RKK-NH2), in series [1], the “Human Plasma stability % remaining, T = 0” value was 100%; the fraction remaining at 1 h, 5 μM came to 95%; the amount remaining at 4 h, 5 μM turned out to be 93%. Also, in “Stability in rat plasma”, the “Rat plasma stability % remaining, T = 0” value is listed as 100%; the amount remaining at 1 h, 5 μM is 91%; the amount remaining at 4 h, 5 μM is 101%. The solubility in series [2] (setting [3]) is at least 6.1 mg/mL. Further, in series [2] (setting [4]), the solubility is at least 5.8 mg/mL. Also, at RXFP1, the Emax amounted to 99%.

With `CCCC[C@H](NC(=O)CNC(=O)[C@H](CCC(=O)O)NC(=O)C(C)(C)NC(=O)C(C)(C)NC(=O)[C@@H](NC(=O)[C@H](CCC(N)=O)NC(=O)[C@H](C)NC(=O)[C@H](CCCNC(=N)N)NC(=O)[C@@H](NC(=O)[C@H](CCCCN)NC(=O)[C@H](CCC(=O)O)NC(=O)[C@H](CCCNC(=N)N)NC(=O)CNC(=O)[C@H](CCC(=O)O)NC(=O)[C@H](CC(C)C)NC(C)=O)C(C)C)[C@@H](C)CC)C(=O)N[C@@H](CO)C(=O)N[C@H](C(=O)N[C@@H](Cc1c[nH]c2ccccc12)C(=O)N[C@@H](CO)C(=O)NC(C)(C)C(=O)N[C@@H](CCCNC(=N)N)C(=O)N[C@@H](CCCCN)C(=O)N[C@@H](CCCCN)C(N)=O)[C@@H](C)O` [compound 3] (Ac-LEGREKVRAQI[Aib][Aib]EG[Nle]STWS[Aib]RKK-NH2), in series [1], the “Human Plasma stability % remaining, T = 0” value is 100%; the fraction remaining at 1 h, 5 μM came to 85%; the amount remaining at 4 h, 5 μM was found to be 64%. For the same compound, in the series “Stability in rat plasma”, the “Rat plasma stability % remaining, T = 0” value was 100%; the share remaining at 1 h, 5 μM was 78%; the fraction remaining at 4 h, 5 μM is 55%. The solubility in series [2] (Acetate buffer 50 mM pH 4.5, target solubility 3.0 mg/ml, ~19 h, read-out: Solubility Acetate buffer pH 4.5) was at least 3.3 mg/mL. Also, the solubility in series [2] (Phosphate buffer 50 mM pH 7.4, target solubility 3.0 mg/ml, ~19 h, read-out: Solubility phosphate buffer pH 7.4) was at least 2.9 mg/mL. Also, on RXFP1, the Emax is 97%.
